The target in the assay is T1, truncated human beta-secretase (residues 1-458, His6-tagged at the C-terminus) (Homo sapiens, UniProt P56817).
T1 construct: truncated human beta-secretase (residues 1-458, His6-tagged at the C-terminus); His6 (C); made in house; host or cells: insect cells D. melanogaster S2 (baculovirus expression system (so in the source))
T1 sequence (P56817 22-458): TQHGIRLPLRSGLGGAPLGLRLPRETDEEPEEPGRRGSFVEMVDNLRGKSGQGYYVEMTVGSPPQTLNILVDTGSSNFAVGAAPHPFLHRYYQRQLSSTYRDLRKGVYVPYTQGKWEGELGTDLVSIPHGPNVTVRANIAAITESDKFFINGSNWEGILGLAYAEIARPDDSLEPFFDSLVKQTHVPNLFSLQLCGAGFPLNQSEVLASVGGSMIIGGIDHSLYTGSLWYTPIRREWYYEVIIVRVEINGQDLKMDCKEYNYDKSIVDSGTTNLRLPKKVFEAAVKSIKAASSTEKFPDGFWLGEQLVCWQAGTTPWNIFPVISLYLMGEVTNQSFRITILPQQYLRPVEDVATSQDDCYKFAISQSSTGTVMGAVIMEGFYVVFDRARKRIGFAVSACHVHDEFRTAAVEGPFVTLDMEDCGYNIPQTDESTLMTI
The assay is described as follows: BACE fluorescence quench assay. The assay is classed as biochemical. Particulars: in vitro enzyme activity, BACE fluorescence assay, pH 4.5; read-out: IC50.
Consider `CN1C(=O)[C@@]2(C[C@@]3(CCCOC3)Oc3ccc(-c4cccc(Br)c4)cc32)N=C1N` [Compound 336], for which the IC50 was 100 to 500 nM. `CN1OC2(CC(C3CCOC(C)(C)C3)Oc3ccc(-c4cc(F)cc(F)c4)cc32)N=C1N` (centres unmarked) [Compound 339]: the IC50 was in the range of 100 to 500 nM. For `Cc1cc(C)cc(-c2ccc3c(c2)[C@]2(C[C@@]4(CCCOC4)O3)N=C(N)N(C)C2=O)c1` [Compound 340] the value was 100 to 500 nM; for `CN1OC2(C[C@H]([C@H]3CCOC(C)(C)C3)Oc3ccc(-c4cc(F)ccc4F)cc32)N=C1N` (some centres unmarked) [Compound 341], 100 to 500 nM.

Turning to `CCOc1ccc(Cl)cc1-c1ccc2c(c1)[C@]1(C[C@]3(CCCOC3)O2)N=C(N)N(C)C1=O` [Compound 342], the 50% inhibitory concentration (IC50) was 100 to 500 nM.

In the case of `CN1OC2(CC(C3CCOC(C)(C)C3)Oc3ccc(-c4cccc(F)c4)cc32)N=C1N` (centres unmarked) [Compound 343], the IC50 was 100 to 500 nM. Turning to `CN1OC2(CC(C3CCOC(C)(C)C3)Oc3ccc(-c4cc(F)cc(F)c4F)cc32)N=C1N` (centres unmarked) [Compound 344], the IC50 lay within 100 to 500 nM.

For `CN1C(=O)C2(CC3(CCCOC3)Oc3ccc(-c4cc(F)cc(F)c4F)cc32)N=C1N` (centres unmarked) [Compound 346], the IC50 is 500 to 1000 nM. Consider `CN1C(=O)C2(CC3(CCCOC3)Oc3ccc(-c4cccc(F)c4)cc32)N=C1N` (centres unmarked) [Compound 347], for which the IC50 was 500 to 1000 nM. As for `CN1OC2(CC(C3CCOCC3)Oc3ccc(-c4cc(Cl)cc(C#N)c4)cc32)N=C1N` (centres unmarked) [Compound 350], the IC50 was in the range of 500 to 1000 nM. For `CN1C(=O)C2(CC3(CCCOC3)Oc3ccc(-c4ccc(F)c(F)c4)cc32)N=C1N` (centres unmarked) [Compound 351], the IC50 was 500 to 1000 nM. Turning to `CN1OC2(CC(C3CCOC(C)(C)C3)Oc3ccc(-c4cc(C#N)ccc4C(F)(F)F)cc32)N=C1N` (centres unmarked) [Compound 354], the IC50 lay in the range of 500 to 1000 nM. To `CN1C(=O)[C@@]2(C[C@@]3(CCCOC3)Oc3ccc(-c4cc(F)cc(C#N)c4)cc32)N=C1N` [Compound 356] belongs 500 to 1000 nM; to `CN1C(=O)[C@@]2(C[C@@]3(CCCOC3)Oc3ccc(-c4cccc(OC(F)(F)F)c4)cc32)N=C1N` [Compound 357], 500 to 1000 nM. For `CC(=O)c1cccc(-c2ccc3c(c2)[C@]2(C[C@]4(CCCOC4)O3)N=C(N)N(C)C2=O)c1` [Compound 358], the 50% inhibitory concentration (IC50) was 500 to 1000 nM. `CN1C(=O)[C@@]2(C[C@@]3(CCCOC3)Oc3ccc(-c4cc(F)cc(F)c4F)cc32)N=C1N` [Compound 359]: the IC50 lay within 500 to 1000 nM. As to `CN1OC2(CC(C3CCOC(C)(C)C3)Oc3ccc(-c4ccc5cn[nH]c5c4)cc32)N=C1N` (centres unmarked) [Compound 361], the half-maximal inhibitory concentration (IC50) was 500 to 1000 nM. Turning to `CN1OC2(C[C@H]([C@@H]3CCOC(C)(C)C3)Oc3ccc(-c4ccc(F)c(F)c4)cc32)N=C1N` (some centres unmarked) [Compound 362], the IC50 was in the range of 500 to 1000 nM. Turning to `Cc1cccc(-c2ccc3c(c2)C2(CC(C4CCOC(C)(C)C4)O3)N=C(N)N(C)O2)c1F` (centres unmarked) [Compound 363], the IC50 fell in the range of 500 to 1000 nM. For `Cc1ccc(C)c(-c2ccc3c(c2)C2(CC4(CCCOC4)O3)N=C(N)N(C)C2=O)c1` (centres unmarked) [Compound 364] the value was 500 to 1000 nM; for `CN1OC2(C[C@H]([C@H]3CCOC(C)(C)C3)Oc3ccc(-c4ccc(F)c(F)c4)cc32)N=C1N` (some centres unmarked) [Compound 365], 500 to 1000 nM. `Cc1ccc(C#N)cc1-c1ccc2c(c1)C1(CC3(CCCOC3)O2)N=C(N)N(C)C1=O` (centres unmarked) [Compound 368]: the IC50 is 500 to 1000 nM.

Take `CN1OC2(C[C@H](C3CCOC(C)(C)C3)Oc3ccc(-c4ccc5cn[nH]c5c4)cc32)N=C1N` (some centres unmarked) [Compound 369]: the IC50 lay in the range of 500 to 1000 nM. For the molecule `CN1OC2(CC(C3CCOC(C)(C)C3)Oc3ccc(-c4csc(-n5ccnc5)n4)cc32)N=C1N` (centres unmarked) [Compound 370], the IC50 was in the range of 500 to 1000 nM. For `CC1CC[C@]2(CO1)C[C@]1(N=C(N)N(C)O1)c1cc(-c3cc(Cl)cc(Cl)c3)ccc1O2` (some centres unmarked) [Compound 371] the value was 500 to 1000 nM.

As for `CN1C(=O)C2(CC(C3CCOC(C)(C)C3)Oc3ccc(-c4cc(F)cc(F)c4)cc32)N=C1N` (centres unmarked) [Compound 372], the 50% inhibitory concentration (IC50) was in the range of 500 to 1000 nM.

As usually defined, the IC50 is the midpoint of a concentration-inhibition curve.

(Values after patent publication US8450308B2 (Vitae Pharmaceuticals, Inc., priority 2008, dated 2013).)
